Results as given in US20250009746A1, “COMBINATION THERAPY FOR TREATING ABNORMAL CELL GROWTH” (Verastem, Inc., priority 2021, published 2025).
Entries after “also recorded” stand apart in the source; their conditions may differ.

Columns and labels:
Type in all cases: cell-based
[1] = system: BRAF V600E human colorectal carcinoma (CRC) cell lines; assay: 3D proliferation assay (CellTiter-Glo) with synergy analysis, BRAF V600E CRC panel
Procedure: (§1) As examples, BRAF V600E human melanoma, BRAF V600E human colorectal carcinoma (CRC), and NRAS mutant human melanoma cell lines were grown in 3D conditions. Briefly, 96-well plates were coated with 50 μL of Matrigel (100%) and incubated at 37° C. and 5% CO2 for 30 min in order for the Matrigel to solidify. Cells were seeded in 100 μL of 2% Matrigel containing medium. After an overnight incubation (17-22 hours), cells were treated with VS-6766+/−BRAF V600 inhibitor (e.g., vemurafenib, dabrafenib, encorafenib), VS-6766+/−pan-RAF inhibitor (e.g., belvarafenib, naporafenib, lifirafenib, tovorafenib), or MEK inhibitor (e.g., cobimetinib, trametinib, binimetinib)+/−BRAF (e.g., vemurafenib, dabrafenib, encorafenib) inhibitor for 7 days. VS-6766 and MEK inhibitors were used at 1:5 dilutions starting at 5 μM. BRAF V600 inhibitors and pan-RAF inhibitors were used at 1:3 dilutions starting at 5 μM. Cell viability was measured using the cell viability CellTiter-Glo assay.
(§2) Raw data and metadata files were processed with a custom R-script for single agent and combination activity. Bliss, Loewe, Highest Single Agent (HSA) and ZIP synergy analysis were performed to generate a composite synergy score. Summary graphics and reports were saved for visualization and further analysis.

[2] = system: BRAF V600E human melanoma cell lines; assay: 3D proliferation assay (CellTiter-Glo) with synergy analysis, BRAF V600E melanoma panel
Procedure: as §1, §2

[3] = system: NRAS mutant human melanoma cell lines; assay: 3D proliferation assay (CellTiter-Glo) with synergy analysis, NRAS mutant melanoma panel; conditions: VS-6766 + pan-RAF inhibitor (e.g., belvarafenib, naporafenib, lifirafenib, tovorafenib); 7 days; 3 NRAS mutant melanoma cell lines; Bliss, Loewe, HSA, ZIP (FIGS. 7, 8)
Procedure: as §1, §2

How did the “synergy of VS-6766+BRAFi compared with synergy of MEKi+BRAFi” value ([1]; BRAF V600E colorectal carcinoma cell lines, composite synergy score (FIG. 4)) turn out when `CNS(=O)(=O)Nc1nccc(Cc2c(C)c3ccc(Cc4ncccn4)cc3oc2=O)c1F` [VS-6766] was run?
The value was “better”.

What about the “synergy of VS-6766+vemurafenib compared with synergy of cobimetinib+vemurafenib” value ([1]; BRAF V600E colorectal carcinoma cell lines, dose-response matrices, each agent starting at 5 μM, Bliss synergy shown (FIG. 5)) of the same compound?
The value was “better”.

And the “synergy of VS-6766+dabrafenib compared with synergy of trametinib+dabrafenib” value ([1]; BRAF V600E colorectal carcinoma cell lines, dose-response matrices, each agent starting at 5 μM, Bliss synergy shown (FIG. 6))?
Its value is “better”.

What about the “synergy with BRAF V600 inhibitors in reducing cell viability” value ([1]; VS-6766 + BRAF V600 inhibitor (e.g., vemurafenib, dabrafenib, encorafenib), 7 days, 3 BRAF V600E CRC cell lines, Bliss, Loewe, HSA, ZIP composite synergy score) of the same compound?
Its value is “synergistic”.

What about the “synergy of VS-6766+BRAFi compared with synergy of MEKi+BRAFi” value ([2]; BRAF V600E melanoma cell lines, composite synergy score (FIG. 1)) of the same compound?
Its value is “better”.

And the “synergy of VS-6766+vemurafenib compared with synergy of cobimetinib+vemurafenib” value ([2]; BRAF V600E melanoma cell lines, dose-response matrices, each agent starting at 5 μM, Bliss synergy shown (FIG. 2))?
The value was “better”.

What about the “synergy of VS-6766+dabrafenib compared with synergy of trametinib+dabrafenib” value ([2]; BRAF V600E melanoma cell lines, dose-response matrices, each agent starting at 5 μM, Bliss synergy shown (FIG. 3)) of the same compound?
The value was “better”.

What about the “synergy with BRAF V600 inhibitors in reducing cell viability” value ([2]; VS-6766 + BRAF V600 inhibitor (e.g., vemurafenib, dabrafenib, encorafenib), 7 days, 5 BRAF V600E melanoma cell lines, Bliss, Loewe, HSA, ZIP composite synergy score) of the same compound?
The value was “synergistic”.

And the “synergy with pan-RAF inhibitors in reducing cell viability” value [3]?
The value was “strong synergy; also recorded: synergistic”.
